In US9980943B2, “Methods of treating muscular dystrophy” (BOARD OF REGENTS OF THE NEVADA SYSTEM OF HIGHER EDUCATION, …, priority 2013, dated 2018):
“And” between values parts separate entries of the source, which are not always exact repeats. Identical values can stand only once.

Columns and labels:
Format in all cases: cell-based, mouse
[1] = tested on: α7 integrin (LacZ reporter in α7βgal+/− myoblasts); assay: Myoblast α7+/LacZ integrin FDG assay (Burkin assay in myoblasts, 96-well); conditions: α7+/LacZ myoblasts, 96-well
[2] = tested on: α7 integrin (LacZ reporter in α7+/LacZ myotubes); assay: Myotube α7 integrin FDG assay (Burkin assay in myotubes, 96-well); conditions: myotubes
[3] = tested on: β-galactosidase in CMV-LacZ C2C12 myoblasts; assay: CMV-LacZ secondary screen in C2C12 myoblasts (β-Gal stabilizing assay); conditions: CMV-LacZ C2C12 myoblasts
How it was run: (§1)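 CMV-LacZ C2C12 line (clonal, FDG-screened); myoblasts/myotubes dosed 0.5–40 μM (0.5, 1, 5, 10, 20, 40 μM); n=2 per point; β-gal stabilization read-out.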

[4] = tested on: β-galactosidase in CMV-LacZ C2C12 myotubes; assay: CMV-LacZ secondary screen in C2C12 myotubes (β-Gal stabilizing assay); conditions: C2C12 CMV-LacZ myotubes, fold relative to DMSO
How it was run: as §1

Structure (SMILES)	CMV-LACZ in Myoblasts (β-galactosidase activity relative to DMSO) ([3]; 0.5 uM)	CMV-LACZ in Myoblasts (β-galactosidase activity relative to DMSO) ([3]; 1 uM)	CMV-LACZ in Myoblasts (β-galactosidase activity relative to DMSO) ([3]; 5 uM)	CMV-LACZ in Myoblasts (β-galactosidase activity relative to DMSO) ([3]; 10 uM)	CMV-LACZ in Myoblasts (β-galactosidase activity relative to DMSO) ([3]; 20 uM)	CMV-LACZ in Myoblasts (β-galactosidase activity relative to DMSO) ([3]; 40 uM)	Burkin Assay in Myoblasts, signal relative to DMSO ([1]; 0.5 uM)	Burkin Assay in Myoblasts, signal relative to DMSO ([1]; 1 uM)	Burkin Assay in Myoblasts, signal relative to DMSO ([1]; 5 uM)	Burkin Assay in Myoblasts, signal relative to DMSO ([1]; 10 uM)	Burkin Assay in Myoblasts, signal relative to DMSO ([1]; 20 uM)	Burkin Assay in Myoblasts, signal relative to DMSO ([1]; 40 uM)	Burkin Assay in Myotubes, α7 integrin LacZ reporter signal relative to DMSO ([2]; 0.5 uM)	Burkin Assay in Myotubes, α7 integrin LacZ reporter signal relative to DMSO ([2]; 1 uM)	Burkin Assay in Myotubes, α7 integrin LacZ reporter signal relative to DMSO ([2]; 5 uM)	Burkin Assay in Myotubes, α7 integrin LacZ reporter signal relative to DMSO ([2]; 10 uM)	Burkin Assay in Myotubes, α7 integrin LacZ reporter signal relative to DMSO ([2]; 20 uM)	Burkin Assay in Myotubes, α7 integrin LacZ reporter signal relative to DMSO ([2]; 40 uM)	CMV-LACZ in Myotubes, signal relative to DMSO ([4]; 0.5 uM)	CMV-LACZ in Myotubes, signal relative to DMSO ([4]; 1 uM)	other results
COc1ccc(N2CCN(C(=O)c3cc(C)on3)CC2)cc1 [MLS001124046-01]	0.8409	1.2650	0.9307	0.8501	0.9881	1.0807															fold induction at 0.5 µM ([1]; Mus musculus, Myoblast, 48 h, 0.5 uM, read-out: Burkin Assay in Myoblasts, signal relative to DMSO): 1.06; fold induction at 1 µM ([1]; Mus musculus, Myoblast, 48 h, 1 uM, read-out: Burkin Assay in Myoblasts, signal relative to DMSO): 1.16; fold induction at 5 µM ([1]; Mus musculus, Myoblast, 48 h, 5 uM, read-out: Burkin Assay in Myoblasts, signal relative to DMSO): 1.08; fold induction at 10 µM ([1]; Mus musculus, Myoblast, 48 h, 10 uM, read-out: Burkin Assay in Myoblasts, signal relative to DMSO): 1.01; fold induction at 20 µM ([1]; Mus musculus, Myoblast, 48 h, 20 uM, read-out: Burkin Assay in Myoblasts, signal relative to DMSO): 1.1; fold induction at 40 µM ([1]; Mus musculus, Myoblast, 48 h, 40 uM, read-out: Burkin Assay in Myoblasts, signal relative to DMSO): 1.07; fold induction at 0.5 µM ([2]; Mus musculus, Myotube, 0.5 uM, read-out: Burkin Assay in Myotubes, α7 integrin LacZ reporter signal relative to DMSO): 1.15; fold induction at 1 µM ([2]; Mus musculus, Myotube, 1 uM, read-out: Burkin Assay in Myotubes, α7 integrin LacZ reporter signal relative to DMSO): 1.1; fold induction at 5 µM ([2]; Mus musculus, Myotube, 5 uM, read-out: Burkin Assay in Myotubes, α7 integrin LacZ reporter signal relative to DMSO): 1.42; fold induction at 10 µM ([2]; Mus musculus, Myotube, 10 uM, read-out: Burkin Assay in Myotubes, α7 integrin LacZ reporter signal relative to DMSO): 1.02; fold induction at 20 µM ([2]; Mus musculus, Myotube, 20 uM, read-out: Burkin Assay in Myotubes, α7 integrin LacZ reporter signal relative to DMSO): 0.893; fold induction at 40 µM ([2]; Mus musculus, Myotube, 40 uM, read-out: Burkin Assay in Myotubes, α7 integrin LacZ reporter signal relative to DMSO): 0.92; fold induction at 0.5 µM ([4]; Mus musculus, C2C12, read-out: CMV-LACZ in Myotubes, signal relative to DMSO, 0.5 uM): 1.02; fold induction at 1 µM ([4]; Mus musculus, C2C12, read-out: CMV-LACZ in Myotubes, signal relative to DMSO, 1 uM): 1.02; fold induction at 5 µM ([4]; Mus musculus, C2C12, read-out: CMV-LACZ in Myotubes, signal relative to DMSO, 5 uM): 0.84; fold induction at 10 µM ([4]; Mus musculus, C2C12, read-out: CMV-LACZ in Myotubes, signal relative to DMSO, 10 uM): 1.02; fold induction at 20 µM ([4]; Mus musculus, C2C12, read-out: CMV-LACZ in Myotubes, signal relative to DMSO, 20 uM): 1.09; fold induction at 40 µM ([4]; Mus musculus, C2C12, read-out: CMV-LACZ in Myotubes, signal relative to DMSO, 40 uM): 0.981
CC1(C)Cc2c(cnn2-c2cccc(F)c2)C(NC(=O)CCc2cnccn2)C1 (stereo not drawn) [MLS001125260-01]	1.1581	1.0584	1.0114	0.9131	1.0563	1.2270	1.21 and 1.071	1.11 and 1.021	0.9838 and 0.9248	0.9616 and 0.8893	1.024 and 0.8738	0.9057 and 0.8426	1.285 and 1.002	1.208 and 0.8663	0.9677 and 1.022	1.091 and 0.9402	0.7634 and 0.9057	0.7451 and 0.9086	1.0074	1.0993	CMV-LACZ in Myotubes, signal relative to DMSO ([4]; 5 uM): 0.9614 and 0.9645; CMV-LACZ in Myotubes, signal relative to DMSO ([4]; 10 uM): 1.0994 and 1.065; CMV-LACZ in Myotubes, signal relative to DMSO ([4]; 20 uM): 1.0000 and 1.0765; CMV-LACZ in Myotubes, signal relative to DMSO ([4]; 40 uM): 0.9212 and 1.175
CC(C)c1ccc(OC(=O)c2cccc(S(=O)(=O)N3CCN(C)CC3)c2)cc1 [MLS001130011-01]	1.1702	0.7695	1.0011	1.1138	0.7837	0.8311	0.9715	0.8947	1.374	0.9762	1.037	0.9155	0.9553	0.9952	0.8834	1.0699	0.7883	0.7512	0.9358	1.0211	CMV-LACZ in Myotubes, signal relative to DMSO ([4]; 5 uM): 0.9057; CMV-LACZ in Myotubes, signal relative to DMSO ([4]; 10 uM): 0.8998; CMV-LACZ in Myotubes, signal relative to DMSO ([4]; 20 uM): 0.8367; CMV-LACZ in Myotubes, signal relative to DMSO ([4]; 40 uM): 1.0156
Cn1ccc(C(=O)Nc2cccnc2Cl)n1 [MLS001147478-01]	1.0721	0.8808	1.2105	1.2999	1.0513	0.8747	1.142	1.091	1.0569	1.192	0.9651	0.8215	1.076	0.9677	0.9933	1.041	0.8876	0.8744	1.3536	1.3827	CMV-LACZ in Myotubes, signal relative to DMSO ([4]; 5 uM): 0.8937; CMV-LACZ in Myotubes, signal relative to DMSO ([4]; 10 uM): 1.2959; CMV-LACZ in Myotubes, signal relative to DMSO ([4]; 20 uM): 1.0810; CMV-LACZ in Myotubes, signal relative to DMSO ([4]; 40 uM): 0.9510
CC1Cc2ccccc2N1C(=O)CSc1nnc(N)s1 (stereo not drawn) [MLS001160611-01]	1.2070	0.8157	1.0117	1.0340	0.8144	1.0389	1.1058	0.9767	1.004	1.115	0.9749	0.9267	0.9452	0.8628	1.006	1.169	0.8397	1.24	0.9762	1.2419	CMV-LACZ in Myotubes, signal relative to DMSO ([4]; 5 uM): 0.8306; CMV-LACZ in Myotubes, signal relative to DMSO ([4]; 10 uM): 0.9661; CMV-LACZ in Myotubes, signal relative to DMSO ([4]; 20 uM): 1.0240; CMV-LACZ in Myotubes, signal relative to DMSO ([4]; 40 uM): 0.9190
